Reference: ChEMBL document CHEMBL3046755, “Synthesis and Herbicidal Activity of N-Alkyl-N-(substituted benzyl)-4-halo-2-alkenamides” (1999)
Active and inactive are the calls of the source. The calls are words filed in the database; no cut-off is given here.

Key:
Echinochloa oryzicola [1] = assay: Light dependent herbicidal activity against Echinochloa oryzicola seedlings assessed as inhibition of seedlings growth at 10 ppm measured after 6 days post compound application under greenhouse conditions at 25 +/- 2 degC with day light; assay type: functional, organism-based
Echinochloa oryzicola [2] = assay: Herbicidal activity against Echinochloa oryzicola seedlings assessed as induction of seedlings damage measured after 3 weeks post compound application through paddy water; assay type: functional
Echinochloa oryzicola [3] = assay: Potency index, ratio of ED90 for chlomethoxyfen to ED90 for test compound for herbicidal activity against Echinochloa oryzicola seedling; assay type: functional
Echinochloa oryzicola [4] = assay: Light dependent herbicidal activity against Echinochloa oryzicola seedlings assessed as inhibition of seedlings growth at 10 ppm measured after 6 days post compound application under greenhouse conditions at 25 +/- 2 degC under dark conditions; assay type: functional, organism-based

Row | Compound | growth inhibition (GI) (Echinochloa oryzicola [1]) | ED90 (Echinochloa oryzicola [2]) | Ratio (Echinochloa oryzicola [3]) | growth inhibition (GI) (Echinochloa oryzicola [4])
1 | CCN(Cc1ccc(Cl)cc1)C(=O)/C=C/C(C)Cl (racemic) | Active | 250 gAi/ha | – | –
2 | CC(Cl)/C=C/C(=O)N(Cc1ccccc1)CC(C)C (stereo not given) | Active | 125 gAi/ha | – | –
3 | CC(Cl)/C=C/C(=O)N(Cc1cccc(C#N)c1)CC(C)C (racemic) | Active | 500 gAi/ha | – | –
4 | CC(Cl)/C=C/C(=O)N(Cc1ccc(Cl)c([N+](=O)[O-])c1)CC(C)C (racemic) | Active | 31 gAi/ha | – | –
5 | CC(Cl)/C=C/C(=O)N(Cc1ccc(C(N)=O)cc1)CC(C)C (racemic) | Active | 500 gAi/ha | – | –
6 | CC(Br)/C=C/C(=O)N(Cc1ccc(Cl)cc1)CC(C)C (racemic) | Active | 125 gAi/ha | – | –
7 | CC(Cl)/C=C/C(=O)N(Cc1ccc(Cl)cc1)C1CCCCCC1 (racemic) | Active | 62 gAi/ha | – | –
8 | CC(Cl)/C=C/C(=O)N(Cc1ccc(Cl)cc1)C1CCCCC1 (racemic) | Active | 31 gAi/ha | – | –
9 | CCCCCCC(Br)/C=C/C(=O)N(Cc1ccc(Cl)cc1)CC(C)C (racemic) | – | 5000 gAi/ha | – | –
10 | CC(Cl)/C=C/C(=O)N(Cc1ccc(C(F)(F)F)cc1)CC(C)C (racemic) | Active | 31 gAi/ha | – | –
11 | CC(Cl)/C=C/C(=O)N(Cc1ccc(S(C)(=O)=O)cc1)CC(C)C (racemic) | Active | >1000 gAi/ha | – | –
12 | CSc1ccc(CN(CC(C)C)C(=O)/C=C/C(C)Cl)cc1 (racemic) | Active | 250 gAi/ha | – | –
13 | COc1cc(Cl)ccc1CN(CC(C)C)C(=O)/C=C/C(C)Cl (racemic) | Active | 500 gAi/ha | – | –
14 | CC(Cl)/C=C/C(=O)N(Cc1ccc(C=O)cc1)CC(C)C (racemic) | Active | 1000 gAi/ha | – | –
15 | CCC(C)N(Cc1ccc(Cl)cc1)C(=O)/C=C/C(C)Cl (racemic) | Active | 375 gAi/ha | – | –
16 | CCCOc1cc(CN(CC(C)C)C(=O)/C=C/C(C)Cl)ccc1Cl (racemic) | Active | 31 gAi/ha | – | –
17 | COc1ccc(Cl)cc1CN(CC(C)C)C(=O)/C=C/C(C)Cl (racemic) | Active | >1000 gAi/ha | – | –
18 | CCCCCCCCC(Br)/C=C/C(=O)N(Cc1ccc(Cl)cc1)CC(C)C (racemic) | – | >5000 gAi/ha | – | –
19 | CC(Cl)/C=C/C(=O)N(Cc1ccccc1C#N)CC(C)C (racemic) | Active | 250 gAi/ha | – | –
20 | CC(Cl)/C=C/C(=O)N(CCC(C)C)Cc1ccc(Cl)cc1 (racemic) | Active | <16 gAi/ha | – | –

Row | Compound | growth inhibition (GI) (Echinochloa oryzicola [1]) | ED90 (Echinochloa oryzicola [2]) | Ratio (Echinochloa oryzicola [3]) | growth inhibition (GI) (Echinochloa oryzicola [4])
21 | CC(Cl)/C=C/C(=O)N(Cc1ccc(Cl)cc1)C(C)C (racemic) | Active | 250 gAi/ha | – | –
22 | CC(C)CN(Cc1ccc(Cl)cc1)C(=O)/C=C/CBr | – | >4000 gAi/ha | – | –
23 | CC(Cl)/C=C/C(=O)N(Cc1ccc(C#N)cc1Cl)CC(C)C (mixture of isomers) | Active | <16 gAi/ha | – | –
24 | CC(Cl)/C=C/C(=O)N(Cc1ccc(Cl)c(OS(C)(=O)=O)c1)CC(C)C (racemic) | Active | 31 gAi/ha | – | –
25 | CC(Cl)/C=C/C(=O)N(Cc1ccc(Cl)cc1)C(C)(C)C (racemic) | Active | >5000 gAi/ha | – | –
26 | C=CCN(Cc1ccc(Cl)cc1)C(=O)/C=C/C(C)Cl (racemic) | Active | 375 gAi/ha | – | –
27 | CCCCCCCCN(Cc1ccc(Cl)cc1)C(=O)/C=C/C(C)Cl (racemic) | Active | >5000 gAi/ha | – | –
28 | CCCC(Cl)/C=C/C(=O)N(Cc1ccc(Cl)cc1)CC(C)C (racemic) | – | 500 gAi/ha | – | –
29 | CCCCN(Cc1ccc(Cl)cc1)C(=O)/C=C/C(C)Cl (racemic) | Active | 31 gAi/ha | – | –
30 | CC(C)CN(Cc1ccc(Cl)cc1)C(=O)/C=C/C(Br)C(C)C (racemic) | – | 250 gAi/ha | – | –
31 | CC(=O)Nc1ccc(CN(CC(C)C)C(=O)/C=C/C(C)Cl)cc1 (racemic) | Active | >5000 gAi/ha | – | –
32 | CC(Cl)/C=C/C(=O)N(Cc1ccc(Cl)cc1)CC(C)C (racemic) | Active | 16 gAi/ha | 10 | –
33 | CC(I)/C=C/C(=O)N(Cc1ccc(Cl)cc1)CC(C)C (racemic) | Active | 250 gAi/ha | – | –
34 | COc1ccc(Cl)c(CN(CC(C)C)C(=O)/C=C/C(C)Cl)c1 (racemic) | Active | 31 gAi/ha | – | –
35 | CC(Cl)/C=C/C(=O)N(Cc1ccc(C#N)cc1)CC(C)C (mixture of isomers) | Active | 16 gAi/ha | – | –
36 | COc1cc(CN(CC(C)C)C(=O)/C=C/C(C)Cl)ccc1Cl (racemic) | Active | 16 gAi/ha | – | –
37 | CC(Cl)/C=C/C(=O)N(Cc1ccc([N+](=O)[O-])cc1)CC(C)C (racemic) | Active | 250 gAi/ha | – | –
38 | CCC(Br)/C=C/C(=O)N(Cc1ccc(Cl)cc1)CC(C)C (racemic) | – | 125 gAi/ha | – | –
39 | CC(O)/C=C/C(=O)N(Cc1ccc(Cl)cc1)CC(C)C (racemic) | Active | >5000 gAi/ha | – | –
40 | CCCC(Br)/C=C/C(=O)N(Cc1ccc(Cl)cc1)CC(C)C (racemic) | – | 250 gAi/ha | – | –

Row | Compound | growth inhibition (GI) (Echinochloa oryzicola [1]) | ED90 (Echinochloa oryzicola [2]) | Ratio (Echinochloa oryzicola [3]) | growth inhibition (GI) (Echinochloa oryzicola [4])
41 | CC(Cl)/C=C/C(=O)N(Cc1cc(Cl)ccc1OS(C)(=O)=O)CC(C)C (racemic) | Active | >1000 gAi/ha | – | –
42 | CC(Cl)/C=C/C(=O)N(Cc1ccc(C(=O)O)cc1)CC(C)C (racemic) | Active | >5000 gAi/ha | – | –
43 | CCOC(=O)c1ccc(CN(CC(C)C)C(=O)/C=C/C(C)Cl)cc1 (racemic) | Active | 1000 gAi/ha | – | –
44 | CCCCC(Br)/C=C/C(=O)N(Cc1ccc(Cl)cc1)CC(C)C (racemic) | – | 2500 gAi/ha | – | –
45 | CCC(Cl)/C=C/C(=O)N(Cc1ccc(Cl)cc1)CC(C)C (racemic) | – | 16 gAi/ha | – | –
46 | CC(Cl)/C=C/C(=O)N(C)Cc1ccc(Cl)cc1 (racemic) | Active | 2000 gAi/ha | – | –
47 | CCCOc1ccc(Cl)c(CN(CC(C)C)C(=O)/C=C/C(C)Cl)c1 (racemic) | Active | 62 gAi/ha | – | –
48 | COc1cc(CN(CC(C)C)C(=O)/C=C/C(C)Cl)ccc1C#N (racemic) | Active | 16 gAi/ha | – | –
49 | CC(Cl)/C=C/C(=O)N(Cc1ccc(Cl)cc1Cl)CC(C)C (racemic) | Active | 125 gAi/ha | – | –
50 | CCOC(=O)c1cc(CN(CC(C)C)C(=O)/C=C/C(C)Cl)ccc1Cl (racemic) | Active | <16 gAi/ha | – | –
51 | CCCN(Cc1ccc(Cl)cc1)C(=O)/C=C/C(C)Cl (racemic) | Active | 125 gAi/ha | – | –
52 | CC(Cl)/C=C/C(=O)N(Cc1cc(OS(C)(=O)=O)ccc1Cl)CC(C)C (racemic) | Active | 31 gAi/ha | – | –
53 | CC(Cl)/C=C/C(=O)N(Cc1ccc(Cl)cc1OS(C)(=O)=O)CC(C)C (racemic) | Active | 500 gAi/ha | – | –
54 | CCOc1cc(Oc2ccc(C(F)(F)F)cc2Cl)ccc1[N+](=O)[O-] | Active | – | – | –
55 | COc1cc(Oc2ccc(Cl)cc2Cl)ccc1[N+](=O)[O-] [CHLOMETHOXYFEN] | – | 250 gAi/ha | – | –
56 | CCCOCCN(C(=O)CCl)c1c(CC)cccc1CC | – | – | – | Active
57 | CC(Cl)/C=C/C(=O)N(Cc1cc(Cl)c(C#N)cc1Br)CC(C)C (racemic) | Active | <16 gAi/ha | – | –
58 | Cc1ccc(CN(CC(C)C)C(=O)/C=C/C(C)Cl)cc1 (racemic) | Active | 125 gAi/ha | – | –
